{"source": "PubChem BioAssay AID651889", "about": "(Broad Institute, 2012)", "tested_on": "P. falciparum NF54 in erythrocytes, 3H-hypoxanthine incorporation, 72 h", "test": "P. falciparum blood-stage growth inhibition, dose response, NF54 strain, plate reader, dry powder (AID 651889)", "note": "The source made the active and inactive calls.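 The calls were made as follows: active = IC50 under 25 times the IC50 of the reference antimalarial drug in the parasite growth test; inactive = the rest.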"}
{"compound": "C[C@@H]1CN([C@@H](C)CO)C(=O)c2cccc(NC(=O)c3ccncc3)c2O[C@H]1CN(C)Cc1ccc(Oc2ccccc2)cc1", "values": [{"measurement": "IC50", "result": "580 nM (inactive)"}]}
